Data taken from patent publication US20060111305A1, “Metabolites of certain [1,4]diazepino[6,7,1-ij]quinoline derivatives and methods of preparation and use thereof” (Wyeth, priority 2004, published 2006).
“And” between values parts separate entries of the source, which are not always exact repeats. Identical values can stand only once. Like-named read-outs stand apart in the source and are kept apart here.

Experiment: Concentrations of DCDQ and DCDQ carbamoyl glucuronide (M6) in human plasma, LC/SRM (Table 34)
Type: in vivo, healthy human subjects
Details: for concentration at 6 h / concentration at 12 h / concentration at 24 h: human, oral, read-out: M6 concentration in plasma; for concentration at 6 h / concentration at 12 h / concentration at 24 h / M6 to DCDQ Ratios / M6 concentration in plasma: plasma
Experimental: Drug administration and specimen collection were performed in a randomized, double-blinded, placebo-controlled, ascending single dose study of the safety, tolerability, pharmacokinetics, and pharmacodynamics of DCDQ administered orally to healthy subjects and subjects with schizophrenia and schizoaffective disorder. The specimens were stored at approximately −70° C. until analysis for metabolite profiles and for ratios of carbamoyl glucuronide (M6) to DCDQ.
Plasma samples from fasted subjects 25, 28 and 30 in the 50 mg single dose group, fasted subjects 50, 51, 54 in the 200 mg single dose group, fasted subjects 74, 76, 79 in the 300 mg single dose group, fed subjects 83, 84, 86 in the 300 mg single dose group and fasted subjects 92, 94, 96 in the 500 mg single dose group were analyzed for DCDQ carbamoyl glucuronide (M6) concentrations. The internal standard d8-DCDQ (25 μL of 200 ng/mL methanol solution) was added to 100 μL of the plasma samples, followed by the addition of 300 μL of acetonitrile. The samples were mixed and centrifuged at 14000 rpm in an Eppendorf 5415C centrifuge (Brinkman Instruments Inc., Westbury, N.Y.) for 10 minutes. The supernatant of each sample was transferred to a clean tube and evaporated to dryness under a stream of nitrogen in a TurboVap LV evaporator (Caliper Life Sciences, Hopkinton, Mass.). The residue was reconstituted with 50 μL of methanol followed by the addition of 150 μL of water. The sample was mixed and centrifuged as described above. The supernatant was analyzed by LC/MS/MS analysis. Samples for standard curves were prepared with control plasma spiked with synthetic M6. The concentrations of M6 used for the standard curve ranged from 0 to 2500 ng/mL plasma.
LC/MS System 3 was used for semi-quantitative analysis of metabolite M6 (DCDQ carbamoyl glucuronide) in plasma and urine samples. The HPLC equipment for this LC/MS System consisted of a Thermo Surveyor HPLC (Thermo Electron Corp., San Jose, Calif.), including a Surveyor MS pump and autosampler. Separations were accomplished on a 5 micron Phenomenex Luna C18(2) column, 150×2 mm (Phenomenex, Torrance, Calif.). The autosampler and column temperatures were set at 5° C. and 40° C., respectively. The HPLC mobile phase consisted of 10 mM ammonium acetate (A) and methanol (B), and was delivered at 0.2 mL/min. The linear mobile phase gradient (HPLC Gradient 2) is shown below. During LC/MS sample analysis, up to 3 min of the initial flow was diverted away from the mass spectrometer prior to evaluation of metabolites.
The mass spectrometer used for semi-quantitative anslysis with LC/MS System 3 was a Finnigan TSQ Quantum triple quadrupole mass spectrometer (Thermo Electron Corp.). The mass spectrometer was equipped with an electrospray interface and operated in the positive ionization mode. Settings for this mass spectrometer are listed below.
LC/MS/MS analysis in the selected reaction monitoring (SRM) mode (LC/SRM) was conducted for DCDQ and M6 using the following settings.
The computer program Microsoft Excel® 97 was used to calculate means and standard deviations and to perform the student t-test. Xcalibur (version 1.3) and MassLynx software (version 4.0) were used for collection and analysis of LC/MS data. Peak area ratios of M6 to the internal standard were used for quantitation of M6 in plasma samples.

[1] = 50 mg (fasted), 6 hr, individual subjects
[2] = 50 mg (fasted), 12 hr, individual subjects
[3] = 50 mg (fasted), 24 hr, individual subjects
[4] = 200 mg (fasted), 6 hr, individual subjects
[5] = 200 mg (fasted), 12 hr, individual subjects
[6] = 200 mg (fasted), 24 hr, individual subjects
[7] = 300 mg (fasted), 6 hr, individual subjects

O=C(O)[C@H]1O[C@@H](OC(=O)N2CCN3C[C@@H]4CCC[C@@H]4c4cccc(c43)C2)[C@H](O)[C@@H](O)[C@@H]1O [Metabolite M6, carbamoyl glucuronide of DCDQ]
differences in M6 concentrations and M6 to DCDQ ratios between fasted and fed subjects (300 mg of DCDQ): no statistically significant differences | concentration at 6 h (50 mg, 50 mg (fasted), 6 hr, Mean ± S.D.): 114 ± 26.9 ng/mL | concentration at 6 h (50 mg, 50 mg (fasted), 6 hr, individual subjects): 127 ng/mL | concentration at 12 h (50 mg, 50 mg (fasted), 12 hr, Mean ± S.D.): 12.4 ± 5 ng/mL | concentration at 24 h (50 mg, 50 mg (fasted), 24 hr, Mean (standard deviation not calculated)): 3.35 ng/mL | concentration at 24 h (50 mg, 50 mg (fasted), 24 hr, individual subjects): 3.1 ng/mL | concentration at 6 h (200 mg, 200 mg (fasted), 6 hr, Mean ± S.D.): 352 ± 228 ng/mL | concentration at 12 h (200 mg, 200 mg (fasted), 12 hr, Mean ± S.D.): 43.6 ± 17.1 ng/mL | concentration at 24 h (200 mg, 200 mg (fasted), 24 hr, Mean ± S.D.): 7.67 ± 2.5 ng/mL | concentration at 24 h (200 mg, 200 mg (fasted), 24 hr, individual subjects): 4.8 ng/mL | concentration at 6 h (300 mg, 300 mg (fasted), 6 hr, Mean ± S.D.): 237 ± 108 ng/mL | concentration at 12 h (300 mg, 300 mg (fasted), 12 hr, Mean ± S.D.): 88.7 ± 51.8 ng/mL | concentration at 24 h (300 mg, 300 mg (fasted), 24 hr, Mean ± S.D.): 28.9 ± 18.4 ng/mL | concentration at 6 h (300 mg, 300 mg (fed), 6 hr, Mean ± S.D.): 579 ± 354 ng/mL | concentration at 12 h (300 mg, 300 mg (fed), 12 hr, Mean ± S.D.): 286 ± 251 ng/mL | concentration at 24 h (300 mg, 300 mg (fed), 24 hr, Mean ± S.D.): 59 ± 75.9 ng/mL | concentration at 6 h (500 mg, 500 mg (fasted), 6 hr, Mean ± S.D.): 1020 ± 444 ng/mL | concentration at 12 h (500 mg, 500 mg (fasted), 12 hr, Mean ± S.D.): 178 ± 30.1 ng/mL | concentration at 12 h (500 mg, 500 mg (fasted), 12 hr, individual subjects): 146 ng/mL | concentration at 24 h (500 mg, 500 mg (fasted), 24 hr, Mean ± S.D.): 49.6 ± 32.6 ng/mL | M6 to DCDQ Ratios (50 mg (fasted), 6 hr, Mean ± S.D.): 74.3 ± 59.6 | M6 concentration in plasma [1]: 132 ng/mL and 83.1 ng/mL | M6 to DCDQ Ratios [1]: 141 and 26.4 | M6 to DCDQ Ratios (50 mg (fasted), 12 hr, Mean ± S.D.): 14.8 ± 7.87 | M6 concentration in plasma [2]: 15.1 ng/mL and 6.60 ng/mL and 15.4 ng/mL | M6 to DCDQ Ratios [2]: 21.6 and 16.5 and 6.16 | M6 to DCDQ Ratios (50 mg (fasted), 24 hr, Mean (standard deviation not calculated)): 10.8 | M6 concentration in plasma [3]: 3.6 ng/mL | M6 to DCDQ Ratios [3]: 15.5 and 6.00 | M6 to DCDQ Ratios (200 mg (fasted), 6 hr, Mean ± S.D.): 45.2 ± 34.0 | M6 concentration in plasma [4]: 225 ng/mL and 615 ng/mL and 216 ng/mL | M6 to DCDQ Ratios [4]: 83.3 and 34.2 and 18.0 | M6 to DCDQ Ratios (200 mg (fasted), 12 hr, Mean ± S.D.): 14.3 ± 14.8 | M6 concentration in plasma [5]: 37.5 ng/mL and 62.9 ng/mL and 30.3 ng/mL | M6 to DCDQ Ratios [5]: 31.3 and 6.84 and 4.73 | M6 to DCDQ Ratios (200 mg (fasted), 24 hr, Mean ± S.D.): 8.42 ± 6.68 | M6 concentration in plasma [6]: 8.8 ng/mL and 9.4 ng/mL | M6 to DCDQ Ratios [6]: 16.0 and 3.38 and 5.88 | M6 to DCDQ Ratios (300 mg (fasted), 6 hr, Mean ± S.D.): 46.1 ± 21.6 | M6 concentration in plasma [7]: 123 ng/mL and 249 ng/mL and 339 ng/mL | M6 to DCDQ Ratios [7]: 58.9 and 58.3 and 21.2 | M6 to DCDQ Ratios (300 mg (fasted), 12 hr, Mean ± S.D.): 23.5 ± 5.10 | M6 concentration in plasma (300 mg (fasted), 12 hr, individual subjects): 43.0 ng/mL and 78.0 ng/mL and 145 ng/mL
